Target: T1, CES2 (Homo sapiens, UniProt O00748)
T1 construct: tissue Bioreclamation IVT; […]
T1 sequence (O00748 27-559): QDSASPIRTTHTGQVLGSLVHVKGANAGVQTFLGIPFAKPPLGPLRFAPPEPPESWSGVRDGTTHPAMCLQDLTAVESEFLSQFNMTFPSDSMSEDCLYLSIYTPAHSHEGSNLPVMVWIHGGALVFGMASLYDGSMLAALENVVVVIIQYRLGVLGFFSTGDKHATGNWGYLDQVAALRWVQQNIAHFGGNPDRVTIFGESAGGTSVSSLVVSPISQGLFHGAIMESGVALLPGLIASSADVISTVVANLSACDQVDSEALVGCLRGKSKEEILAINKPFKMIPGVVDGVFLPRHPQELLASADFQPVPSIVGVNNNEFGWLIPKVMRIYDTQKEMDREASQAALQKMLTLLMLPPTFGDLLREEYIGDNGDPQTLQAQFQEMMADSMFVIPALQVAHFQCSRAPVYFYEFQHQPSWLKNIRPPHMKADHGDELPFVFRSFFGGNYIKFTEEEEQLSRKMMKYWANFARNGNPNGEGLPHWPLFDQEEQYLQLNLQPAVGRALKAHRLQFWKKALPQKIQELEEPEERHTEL
Test: Inhibition of CES2-catalyzed FD hydrolysis in HLMs
Format: biochemical
Settings: FD as probe substrate, logarithm of IC50 in nM
Procedure: The incubation system contains following components (total volume 200 μL): 2 μL DMSO/inhibitor, 2 μL HLMs (2 μg/ml, final concentration), […] buffer PBS (pH = =7.4).

Quinatic acid
CES2 lg (IC50/nM): 3.72 ± 0.10

— article PMC8167799, “Discovery and Characterization of the Biflavones From Ginkgo biloba as Highly Specific and Potent Inhibitors Against Human Carboxylesterase 2” (Frontiers in Pharmacology, 2021)
